# Laboratory results reported in patent US20240075029A1, “LUMINOL FOR THE PROPHYLAXIS AND THE TREATMENT OF SEQUELAE OF A SARS-COV-2 INFECTION” (METRIOPHARM AG, priority 2020, published 2024).
# Like-named read-outs stand apart in the source and are kept apart here.
# What was measured:
# dyspnea = settings: human, in vivo
# joint pain = settings: human, in vivo
# [1] = test system: cigarette smoke-induced 3-nitrotyrosine formation in the lung parenchyma; settings: for 3-nitrotyrosine stained surface area, mean ± SEM: n=5
# Excerpt: The isolated, ventilated and perfused mouse lung system (ILU) is an established model for studying acute effects of various conditions and drugs on lung parenchyma and vasculature. It is mainly used for examining effects of hypoxia and for evaluating the efficacy of potential drugs on the hypoxic pulmonary vasoreaction (cf. Weissmann et al. (2006) Proc Natl Acad Sci USA 103: 19093-19098).
# C57BL/6J mice (n=25, 5 per group; male/female, 3-6 months, 20-30 g; Charles River GmbH, Sulzfeld, Germany) were anesthetized with a ketamine (100 mg/kg body weight) and xylazine (20 mg/kg body weight) intraperitoneal injection (Ceva Tiergesundheit GmbH, Dusseldorf, Germany) containing heparin (50 I.E. heparin/g body weight; Ratiopharm GmbH, Ulm, Germany). […] Lungs were ventilated in an isolated chamber using normoxic gas (21% O2, 5% CO2, 74% N2; 150 breaths per minute at the PEEP (positive end-expiratory pressure) of 3 cm H2O) and perfused with a modified Krebs-Henseleit buffer (120.0 mM NaCl, 4.3 mM KCl, 1.1 mM KH2PO4, 2.4 mM CaCl2, 1.3 mM MgCl2, 13.14 mM glucose, 0.25 mM hydroxyethyl starch 200000/0.5, 25.0 mM NaHCO3 adjusted to a constant pH range of […] L-arginine; Serag-Wissner GmbH & Co. KG, Naila, Germany) at a temperature of 37° C. Lung weight, right and left ventricle pressure, as well as ventilatory pressure were monitored and recorded during the whole experimental procedure. After 5-10 minutes, when the lung was properly flushed and all the parameters were stable, 5-amino-2,3-dihydro-1,4-phthalazinedione sodium salt was applied by adding 150 μl of a stock solution to 15 ml of the circulating perfusion buffer. The substance was applied 10 minutes prior to the first cigarette smoke application. Cigarette smoke was applied via trachea while lung is perfused with the buffer containing 5-amino-2,3-dihydro-1,4-phthalazinedione sodium salt. […] 50 ml of the cigarette smoke were taken via a syringe and applied to the lung via trachea (FIG. 4A) in deep breaths (periodic inflation for 3-4 s) over a period of 5 min. The application was done manually while carefully monitoring the inspiratory pressure to avoid damage of the lung. The cigarette smoke application was repeated three times with a 1 hour break in-between.
# Five treatment groups (n=5, respectively) were investigated: • A: room air exposure • B: cigarette smoke+diluent (buffer solution) • C: cigarette smoke+0.5 mM 5-amino-2,3-dihydro-1,4-phthalazinedione sodium salt • D: cigarette smoke+1 mM 5-amino-2,3-dihydro-1,4-phthalazinedione sodium salt • E: cigarette smoke+2 mM 5-amino-2,3-dihydro-1,4-phthalazinedione sodium salt
# 5-amino-2,3-dihydro-1,4-phthalazinedione sodium salt Form I was dissolved in water for injection (vehicle) at the required concentrations described above. Stock solutions were prepared in water for injection. Further 1:100 dilutions were made with modified Krebs-Henseleit buffer (see above). Stock solutions were stored at −70° C. in appropriate aliquots. The required amount of stock solution was thawed, and the corresponding working solution was prepared for immediate use.
# One hour after the third cigarette smoke application lungs were removed from the system and fixed by inflating with formalin solution (via trachea) at the pressure of 12-15 cm H2O for two hours at room temperature. Afterwards the fixed lungs were kept in PBS (phosphate buffer saline, see below) at +4° C. until further dehydration and paraffin embedding. Paraffin blocks were cut 3 μm thick, dried overnight at 37° C. and stained for 3-nitrotyrosine (3-NT).
# SARS-CoV-2 = settings: Vero B4 cell culture; Schumann et al. (2020); cited from earlier work
# chronic fatigue = settings: human, in vivo
# [2] = test system: murine peritoneal macrophages
# Excerpt: Female C57131/6 mice (6-8 weeks old) were purchased from Envigo (San Petro al Natisone, Udine, Italy) and housed under standard laboratory conditions (specific-pathogen free). Food and water were applied ad libitum. Animal handling and the study protocol were in accordance with international guidelines.
# Four days after i.p. injection of 3% thioglycolate medium (w/v in distilled water; St Louis, MO USA), murine peritoneal macrophages (PM) were isolated according to the protocol of Zhang et al. (Curr. Protoc. Immunol. 2008, Chapter 14, Unit 14.1).
# Briefly, cells were collected by injecting 10 ml of complete medium (DMEM/F12 Medium containing 10% fetal calf serum) into the peritoneal cavity using a 30 cc syringe attached to a 19-G needle, followed by slowly withdrawing the lavage fluid. Cells were washed twice in PBS (phosphate buffered saline) and counted.
# One hour prior to LPS (lipopolysaccharide) stimulation (0.1 μg/ml; Escherichia coli 055:B5, St Louis, MO USA), cells (0.5×10^6 cells/well in 24-well plates with 1 ml total volume of medium) were pre-treated with scalar concentrations of 5-amino-2,3-dihydro-1,4-phthalazinedione sodium salt (ranging from 1 mM to 0.025 mM). Two independent experiments (each using cells pooled from three mice) were performed and secreted cytokine levels were determined 24, 48 and 72 h after LPS stimulation using ELISA technique.
# [3] = 1 mM, pre-treatment 1 h prior to LPS (0.1 μg/ml), LPS only = 100%, C57 mice PMs
smiles,measurement,setting,value
"Nc1cccc2c(=O)[nH][nH]c(=O)c12.[Na] [5-amino-2,3-dihydro-1,4-phthalazinedione sodium salt]",physical performance (dyspnea),dyspnea,continuous improvement of the physical performance
same,joint pain,joint pain,continuous waning of the joint pain
same,"cigarette smoke induced 3-nitrotyrosine formation (immunohistochemistry, in words)",[1]; 0.5 mM in perfusion buffer,moderate effect
same,"cigarette smoke induced 3-nitrotyrosine formation (immunohistochemistry, in words)",[1]; 1 mM in perfusion buffer,almost completely abolished
same,"cigarette smoke induced 3-nitrotyrosine formation (immunohistochemistry, in words)",[1]; 2 mM in perfusion buffer,almost completely abolished
same,"3-nitrotyrosine stained surface area, mean ± SEM",[1]; cigarette smoke + 0.5 mM in perfusion buffer,2.24 ± 0.28 % area
same,"3-nitrotyrosine stained surface area, mean ± SEM",[1]; cigarette smoke + 1 mM in perfusion buffer,0.72 ± 0.26 % area
same,"3-nitrotyrosine stained surface area, mean ± SEM",[1]; cigarette smoke + 2 mM in perfusion buffer,0.37 ± 0.13 % area
same,replication of SARS-CoV-2,SARS-CoV-2,almost completely block
same,symptoms of chronic fatigue,chronic fatigue,continuous waning of the symptoms
same,reduction of IL-1-beta level,[2]; [3],~50%
same,reduction of IL-6 level,[2]; [3],~80%
same,reduction of IL-12 level,[2]; [3],~60%
same,reduction of TNF-alpha level,[2]; [3],about 40%
same,cytokine reduction in PMs of a second mouse strain (Balb/c),"[2]; Balb/c PMs, six concentrations ranging from 1 mM to 0.25 mM, data not shown",clear dose-dependency
same,cytokine secretion of unstimulated murine PMs,"[2]; no LPS stimulation, data not shown",did not affect
